{"source": "patent US11376294B2", "about": "“Mangiferin-containing compositions for improving sports performance” (priority 2016, dated 2022)", "key": {"[1]": {"tested_on": "pyramidal cells in hippocampus slices of rat brains", "assay": "Ex vivo population spikes in hippocampal slice preparation, Example 6", "experimental": "Hippocampus slices of rat brains were tested. After daily administration of trial medication for one week, 4 animals were sacrificed under deep anesthesia and the hippocampus was removed and chopped by a vibrating razor blade to give 6 slices of about […] thickness per animal. Slices were taken one day after the last treatment. After adaptation to artificial cerebrospinal fluid for one hour, slices were transferred to an incubation chamber and superfused with cerebrospinal fluid at 35° C. Schaffer collaterals are branches extending from the axons of CA3 pyramidal cells in the hippocampus. Schaffer collaterals project to the CA1 area of the hippocampus, and are an integral part of memory formation. The Schaffer Collaterals were stimulated by single stimuli or theta burst stimuli, where theta burst stimuli are short bursts of stimulation at high frequencies, applied 5 times per second."}, "Fisher 344 rats [2]": {"tested_on": "Fisher 344 rats", "assay": "EEG in rats administered mango leaf extract and/or caffeine, Example 5", "format": "in vivo, rat", "settings": "0.50 mg/kg oral", "excerpt": "After automatic artefact rejection, signals were collected in sweeps of 4 s duration and Fast Fourier transformed using a Hanning window. […] Nine adult male Fisher 344 rats (5 months of age and day-night converted, weight about 350-400 g, were implanted with electrodes into the brain and were given two weeks for recovery from surgery. Three animals dropped the implant after performance of a placebo series. […] A crossover design with at least three days of drug holidays in between drug administrations was used. […] The animals were dosed orally at a constant volume of 1.0 ml/kg per kg body weight. The dosage administered to each animal was determined every day by the weight of that animal at the time of administration. Data were averaged from 5-9 animals, and are expressed as mean values±S.E.M."}, "Fisher 344 rats [3]": {"tested_on": "Fisher 344 rats", "assay": "EEG (electropharmacogram) in freely moving rats, Example 1", "format": "in vivo, rat", "settings": "oral gavage, 5-65 min after administration, FIG. 1", "experimental": "Fisher 344 rats (11 months of age and day-night converted, weight about 350-400 g, provided by Charles River Laboratories, D-97633, Sulzfeld) were used in a series of experiments on the effects of various herbal and pharmaceutical products on central nervous system activity. Products were provided to the test subjects orally (gavage).\nEEG signals were recorded by telemetry from 4 implanted electrodes in the frontal cortex, hippocampus and striatum of freely moving rats from inside a totally copper shielded room. Signals were collected in sweeps of 4 second duration and Fast Fourier transformed using a Hanning window. EEG signals were recorded over a period starting 5 minutes after administration of the test substances, and ending 65 minutes after administration of the test substances. Sampling frequency was 512 Hz. […] In an off-line procedure the spectra were averaged to give longer periods for further analysis and data presentation. Spectral activity within the frontal cortex, hippocampus, striatum and reticular formation was recorded."}, "acetylcholinesterase": {"target": "acetylcholinesterase (Homo sapiens, UniProt P22303)", "sequence (P22303 32-614, species assumed)": "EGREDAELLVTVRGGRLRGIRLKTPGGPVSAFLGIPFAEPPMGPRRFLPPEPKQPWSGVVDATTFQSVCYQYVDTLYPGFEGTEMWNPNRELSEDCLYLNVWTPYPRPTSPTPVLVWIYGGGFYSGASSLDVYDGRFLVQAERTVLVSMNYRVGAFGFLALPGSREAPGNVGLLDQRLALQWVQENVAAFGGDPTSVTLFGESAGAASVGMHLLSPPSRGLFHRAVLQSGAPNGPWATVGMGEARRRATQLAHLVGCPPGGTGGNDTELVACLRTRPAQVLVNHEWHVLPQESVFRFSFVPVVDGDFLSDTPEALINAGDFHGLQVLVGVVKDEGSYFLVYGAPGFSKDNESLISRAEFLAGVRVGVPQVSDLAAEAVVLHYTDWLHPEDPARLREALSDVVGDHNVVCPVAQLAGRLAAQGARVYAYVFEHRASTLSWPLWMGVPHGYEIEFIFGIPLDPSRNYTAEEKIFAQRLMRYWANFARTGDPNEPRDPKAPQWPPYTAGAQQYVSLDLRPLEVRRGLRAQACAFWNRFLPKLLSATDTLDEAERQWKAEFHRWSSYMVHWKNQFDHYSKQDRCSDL", "settings": "cited from earlier work"}, "Fisher 344 rats [4]": {"tested_on": "Fisher 344 rats", "assay": "EEG in freely moving rats, two recording periods, Example 2", "format": "in vivo, rat", "settings": "oral, FIG. 2B/2C, period not separated", "experimental": "Products were provided to the test subjects orally (gavage).\nEEG signals were recorded by telemetry from 4 implanted electrodes in the frontal cortex, hippocampus and striatum of freely moving rats from inside a totally copper shielded room."}, "brain wave activity": {"tested_on": "brain wave activity", "assay": "General statements on CNS activity, equivalence, onset and duration after ingestion", "format": "in vivo"}, "MAOA": {"target": "T1, MAOA (Homo sapiens, UniProt P21397)", "T1 sequence (P21397 1-527)": "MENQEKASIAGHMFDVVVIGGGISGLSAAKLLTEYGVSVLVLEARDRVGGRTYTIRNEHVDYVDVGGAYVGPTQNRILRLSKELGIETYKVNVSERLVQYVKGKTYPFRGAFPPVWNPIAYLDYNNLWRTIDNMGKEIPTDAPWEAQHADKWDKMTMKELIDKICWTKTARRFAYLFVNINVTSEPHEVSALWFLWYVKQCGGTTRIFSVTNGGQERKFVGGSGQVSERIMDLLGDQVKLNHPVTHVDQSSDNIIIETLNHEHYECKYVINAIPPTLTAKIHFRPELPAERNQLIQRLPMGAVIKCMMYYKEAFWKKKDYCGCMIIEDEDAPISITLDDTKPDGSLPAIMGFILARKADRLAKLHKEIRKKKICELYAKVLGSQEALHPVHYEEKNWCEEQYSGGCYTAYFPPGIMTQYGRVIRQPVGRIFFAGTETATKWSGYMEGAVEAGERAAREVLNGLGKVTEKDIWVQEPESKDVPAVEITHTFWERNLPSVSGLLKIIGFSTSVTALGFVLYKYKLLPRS", "settings": "said to underlie anti-depressant-like effect; cited from earlier work"}}, "data": [{"smiles": "Cn1c(=O)c2c(ncn2C)n(C)c1=O", "note": "[Caffeine]", "values": [{"measurement": "Amplitude (population spike), Single Stimulation", "setting": "[1]; SS, slices after one week daily dosing, caffeine 0.5 mg/kg, mango leaf extract 25 mg/kg", "result": "1.3 (SS) mv"}, {"measurement": "Amplitude (population spike), Theta Burst Stimulation", "setting": "[1]; TBS, slices after one week daily dosing, caffeine 0.5 mg/kg, mango leaf extract 25 mg/kg", "result": "3.1 (TBS) mv"}, {"measurement": "pyramidal cell activity", "setting": "[1]; Table 1 and FIG. 11", "result": "significantly smaller effect on such activity than mango leaf extract"}, {"measurement": "delta waves in the striatum", "setting": "Fisher 344 rats [2]; FIG. 6", "result": "minor but statistically conspicuous decrease"}, {"measurement": "delta, theta and beta power in the hippocampus", "setting": "Fisher 344 rats [2]; FIG. 6", "result": "statistically significant attenuation"}, {"measurement": "delta power in the frontal cortex", "setting": "Fisher 344 rats [2]; FIG. 6, p<0.1", "result": "statistically conspicuous attenuation"}, {"measurement": "delta power in the frontal cortex and reticular formation", "setting": "Fisher 344 rats [2]; from the second hour after administration on", "result": "statistically significant increases of delta power"}, {"measurement": "alpha2 power", "setting": "Fisher 344 rats [2]; last hour, p<0.05 in the reticular formation", "result": "increases of alpha2 power were observed except for the striatum"}]}, {"smiles": "O=c1c2cc(O)c(O)cc2oc2cc(O)c([C@@H]3O[C@H](CO)[C@@H](O)[C@H](O)[C@H]3O)c(O)c12", "note": "[Mangiferin]", "values": [{"measurement": "CNS profile (EEG) compared with reference substances", "setting": "Fisher 344 rats [3]", "result": "surprisingly similar to the CNS profiles of reference caffeine, citicolin and Guarana"}, {"measurement": "acetylcholinesterase inhibition", "setting": "acetylcholinesterase", "result": "acetylcholinesterase inhibiting activity"}, {"measurement": "gamma wave activity in the striatum", "setting": "Fisher 344 rats [4]", "result": "not observed"}, {"measurement": "caffeine-type side-effects (nausea, fast or irregular pulse, irritability, loss of concentration)", "setting": "brain wave activity; even at high servings or doses", "result": "none of the well-known side-effects"}, {"measurement": "dose dependence of CNS stimulation beyond a threshold", "setting": "brain wave activity; in vivo", "result": "plateau effect"}, {"measurement": "calming activity when ingested", "setting": "brain wave activity; unlike caffeine", "result": "calming, de-stressing activity"}, {"measurement": "MAOA inhibition", "setting": "MAOA", "result": "inhibition of MAOA"}]}]}
